Measurements taken from patent US11058659B2, “Methods and compositions for the treatment of ophalmic diseases and disorders” (UNIVERSITY OF SOUTHERN CALIFORNIA, priority 2013, dated 2021).
Entries after “also recorded” stand apart in the source; their conditions may differ.

Assays:
[1] = test system: human mammary endothelial cells (HMEC); assay: tube formation assay (HMEC cultured in Geltrex); assay type: cell-based; details: 24 hours, concentration escalation, at greater than 100 nM, compared to untreated or no Geltrex
Experimental: FIG. 1. Inhibition of angiogenesis by compound 18 in a dose-dependent manner—Effect on tube formation. The effect of Compound 18 was evaluated using tube formation assay using a concentration escalation design.
(§1) Compound 18 was prepared using methods known in the art. (For example, see U.S. Pat. Nos. 8,115,023, and 7,683,193). […] (FIG. 3). On Day 7, retinal edema and angiogenesis between the two treatment groups were similar.

[2] = test system: VEGF-induced angiogenesis; assay: VEGF-induced angiogenesis in a rabbit eye model; assay type: in vivo
Experimental: FIG. 2. Inhibition of angiogenesis by compound 18 in a dose-dependent manner—Effect on VEGF-induced angiogenesis in a rabbit eye model. (A) Study design. To evaluate the impact of compound 18, 10 μg of VEGF in each eye is administered as an intravitreal injection. In this study, the activity of compound 18 is evaluated in a concentration escalation manner from 0.125 to 0.5 mg given as a single dosage. A formulation of compound 18 where the dosage is admixed in a total of 50 μL, was administered immediately after VEGF administration. (B) Results.
FIG. 3. Comparison of compound 18 with bevacizumab (Avastin)—Effect on VEGF-induced angiogenesis in a rabbit eye model. The potency of compound 18 was compared with bevacizumab. (A) Study design. Using a VEGF-induction eye model, where 10 μg of VEGF is injected as an intravitreal administration. One dose of 0.5 mg of compound 18 was compared with 1.25 mg bevacizumab after VEGF induction. (B) Results. […] On Day 7, retinal edema and angiogenesis between the two treatment groups were similar.
as §1

[3] = test system: CNV lesions; assay: choroidal neovascularization (CNV) model of age-related macular degeneration (AMD), laser induced lesions supplemented with VEGF; assay type: in vivo; details: for CNV lesion number: week 4 of therapy, vs vehicle control; for vessels and edema in the CNV lesions (retinal angiography): by week 4, vs vehicle
Experimental: FIG. 4. Effect of compound 18 in a choroidal neovascularization (CNV) model of age-related macular degeneration (AMD). (A) Study Design: Simultaneous treatment model. Choroidal neovascularization (CNV) model, was used to determine its effect on new blood vessel formation. In this figure, laser induced lesions were further supplemented with 10 μg VEGF intravitreal administration every two weeks. Laser induced AMD lesions penetrated the Bruch's membrane. CNV lesions were treated with 0.5 mg compound 18 administered weekly, where first dosage was given at the time of CNV lesion formation. (B) Results.
FIG. 5. Effect of compound 18 in a choroidal neovascularization (CNV) model of age-related macular degeneration (AMD) A) Study Design: Sequential treatment model. CNV model was used to determine compound 18's effect on new blood vessel formation. Laser induced lesions were supplemented with 10 μg VEGF intravitreal administration every two weeks. CNV lesions were treated with 0.5 mg compound 18 administered weekly, were given one week after CNV lesion formation. (B) Results.
FIG. 6. Quantification of the Lesion Number and Mean Area. CNV lesions were enumerated at baseline, 2 and 4 weeks after CNV lesion formation. (A) Lesion Number. […] (B) Mean Area.
FIG. 8. Optical Coherence Tomography (OCT) of CNV Lesions Over Time. OCT was used to evaluate CNV lesion healing after compound 18 treatment.
FIG. 9. Confocal Scanning Fluorescent Microscope of CNV Lesions. Confocal scanning fluorescent microscopy is used to visualize the level of neovascular growth. In the vehicle treated lesions (Left), extensive neovascular growth is noted after one month.
FIG. 10. Confocal Scanning Electron Microscopy of CNV lesions treated with vehicle (Left) was compared with compound 18 treatment (Right).
as §1

[4] = test system: VEGF receptor 2; assay: RT-PCR of CNV lesions after treatment: VEGF receptor 2; assay type: in vivo
Experimental: (§2) FIG. 7. RT-PCR Data of CNV after treatment. Reduced expression of pro-angiogenic and pro-inflammatory proteins upon treatment with compound 18.
as §1

[5] = test system: cyclooxygenase-2 (COX-2); assay: RT-PCR of CNV lesions after treatment: COX-2; assay type: in vivo
Experimental: as §2, §1

[6] = Day 7, 10 μg VEGF intravitreal, one dose

| Molecule | inhibition of tube formation (angiogenesis) [1] | activity profile vs Avastin ([2]; 0.5 mg compound 18 vs 1.25 mg Avastin, Day 3 and Day 7 findings) | retinal edema and angiogenesis, 0.5 mg compound 18 compared to 1.25 mg bevacizumab ([2]; Day 3, 10 μg VEGF intravitreal, one dose) | retinal edema and angiogenesis between the two treatment groups (0.5 mg compound 18 vs 1.25 mg bevacizumab) [2, 6] | level of retinal edema and angiogenesis vs vehicle ([2]; Day 7, 10 μg VEGF intravitreal, single dose, doses >0.25 mg (0.125 to 0.5 mg tested)) | neovascular growth in CNV lesions (confocal scanning fluorescent microscopy) ([3]; after one month, vs vehicle treated lesions) | CNV lesion healing by Optical Coherence Tomography (OCT) ([3]; same lesion evaluated at 2 weeks and 4 weeks) | mean CNV area ([3]; sequential (SQ) treatment) | CNV lesion number ([3]; sequential (SQ) treatment) | vessels and edema in the CNV lesions (retinal angiography) ([3]; sequential treatment model, 0.5 mg weekly starting one week after lesion formation) | mean CNV area ([3]; simultaneous (SM) treatment) | CNV lesion number ([3]; simultaneous (SM) treatment) | vessels and edema in the CNV lesions (retinal angiography) ([3]; simultaneous treatment model, 0.5 mg weekly from time of lesion formation) | morphology of CNV lesions (Confocal Scanning Electron Microscopy) ([3]; vs vehicle (neovascular growth penetrating the Bruch's membrane)) | expression of VEGF receptor 2 (RT-PCR) ([4]; sequential (SQ) treatment) | expression of VEGF receptor 2 (RT-PCR) ([4]; simultaneous (SM) treatment) | expression of cyclooxygenase-2 (COX-2) (RT-PCR) ([5]; sequential (SQ) treatment) | expression of cyclooxygenase-2 (COX-2) (RT-PCR) ([5]; simultaneous (SM) treatment) |
| --- | --- | --- | --- | --- | --- | --- | --- | --- | --- | --- | --- | --- | --- | --- | --- | --- | --- | --- |
| CCCCC[C@@H](O)/C=C/c1cccc(/C=C/[C@@H](O)[C@@H](O)CCCC(=O)OC)c1 [Compound 18] | able to inhibit angiogenesis in a dose-response manner; also recorded: notable inhibition of tube formation | comparable or improved activity profile vs Avastin | significantly lower retinal edema and angiogenesis | similar | significantly reduced | significant reduction in neovascular growth | able to promote healing of a lesion | reduction in the mean CNV area | significantly reduced CNV lesion | statistically significant reduction in the vessels and edema | reduction in the mean CNV area | significantly reduced CNV lesion | statistically significant reduction in the vessels and edema | thin-walled fenestrated vascular channels with flat configuration | significantly reduced the expression | significantly reduced the expression | significantly reduced the expression | significantly reduced the expression |
| bevacizumab: FDA-approved anti-VEGF antibody injected intravitreally [reference compound] |  |  |  | similar |  |  |  |  |  |  |  |  |  |  |  |  |  |  |
